Experimental data as given in patent US12509439B2, “Anti-malarial agents” (UNIVERSITY OF KENTUCKY RESEARCH FOUNDATION, priority 2020, dated 2025).

Experiments:
[1] = PK parameters in rat (IV and PO); format: in vivo; details: for PK parameters (rat): F: 1 mg/kg IV and 3 mg/kg PO; for clearance / half-life: Sprague Dawley, plasma, IV arm, 1 mg/kg; for clearance: read-out: PK parameters (rat): Cl; for half-life: read-out: PK parameters (rat): t1/2
Description: Swiss Albino male mice or Sprague Dawley rats (TCGLS, India) were kept under a 12/12 h light/dark cycle, 22±2° C. temp, 50±20% RH with free access to food and water ad libitum. Mice were selected randomly/based on body weight/age and fasted for 4 h before dosing and until 2 h after dosing. Three mice were used per route of administration. For IV determination (1 mg/kg, dose volume 5 ml/kg) the dose was administered by injection into the lateral tail vein (rats are anaesthetized using 3% v/v isoflurane: oxygen mixture). For PO determination (3 mg/kg, dose volume 10 ml/kg) the dose was administered by oral gavage in conscious animals.
(§1) Blood samples were taken (mice 50 μL, rat 100 μL) at regular timepoints from the saphenous vein (conscious restrained animals) and collected into heparinized capillary tubes and transferred into 0.5 mL microcentrifuge tubes. Samples were processed by centrifugation at 1640 g for 10 min at +4° C. within 30 min of collection and stored at −20° C. until bioanalysis. All samples were mixed with ice-cold acetonitrile containing an internal standard, centrifuged at 4000 rpm for 15 min at 15° C. Supernatant was then half diluted in water and analysed by LCMS/MS analysis to determine analyte peak area/IS peak area (the ratio). Concentration (plasma) of the compounds of the invention was determined by reference to a calibration curve. Pharmacokinetic parameters (Cmax, Tmax, AUC, t1/2, CL, Vd, BA) were calculated using WinNonLin, using non-compartmental analysis (Phoenix, Version 6.3). The pharmacokinetic parameters for compounds shown in Table 2 support that compounds of the invention have pharmacokinetic properties associated with treatment of malaria via the oral route and that compounds have substantially longer half-lives than the reference compound.

[2] = Microsomal intrinsic clearance, rat liver microsomes; format: in vitro ADME; details: rat liver microsomes (pooled), pH 7.4, 45 min, NADPH
Description: The compounds of the invention (1 μM) were incubated in suspension with human (rat or mouse) liver microsomes pooled from multiple donors (>10) and samples taken at 5 time points over the course of a 45 min experiment and analysed by LC MS/MS. Microsomes (final protein concentration 0.5 mg/mL), 0.1 M phosphate buffer pH 7.4 and test compound (final substrate concentration 1 μM; final DMSO concentration 0.25%) were pre-incubated at 37° C. prior to the addition of NADPH (final concentration 1 mM) to initiate the reaction. A minus cofactor control incubation was included for each compound tested where 0.1 M phosphate buffer pH 7.4 is added instead of NADPH (minus NADPH). All incubations were performed in duplicate for each test compound and the results averaged. Each compound is incubated for 0, 5, 15, 30 and 45 min. The control (minus NADPH) was incubated for 45 min only. The reactions were stopped by transferring incubate into acetonitrile at the appropriate time points, in a 1:3 ratio.
The termination plates were centrifuged at 3,000 rpm for 20 min at 4° C. to precipitate the protein. Following protein precipitation, the sample supernatants were combined in cassettes of up to 4 compounds, internal standard added and samples analysed by LC-MS/MS. From a plot of ln peak area ratio (compound peak area/internal standard peak area) against time, the gradient of the line is determined. Subsequently, half-life (t½) and intrinsic clearance (CLint) are calculated using the equations below: Elimination rate constant (k)=(−gradient) Half-life (t1/2)(min)=0.693/k Intrinsic clearance (i.e. CLint)(μL/min/mg protein)=V×0.693/t1/2 where V=Incubation volume (μL)/Microsomal protein (mg)
Verapamil and dextromethorphan were included in the assay as controls and if the values for these compounds were not within the specified limits the results were rejected and the experiment repeated.

[3] = Hepatocyte intrinsic clearance, cryopreserved human hepatocytes; format: in vitro ADME; details: cryopreserved human hepatocytes in suspension (pooled), 60 min
Description: The compounds of the invention (3 μM) were incubated in suspension with cryopreserved human (rat or mouse) hepatocytes pooled from multiple donors (>10) and samples taken at 6 time points over the course of a 60 min experiment and analysed by LC MS/MS. Williams E media supplemented with 2 mM L-glutamine and 25 mM HEPES and test compound (final substrate concentration 3 μM; final DMSO concentration 0.25%) were pre-incubated at 37° C. prior to the addition of a suspension of cryopreserved hepatocytes (final cell density 0.5×10^6 viable cells/mL in Williams E media supplemented with 2 mM L glutamine and 25 mM HEPES) to initiate the reaction. The final incubation volume is 500 μL. The reactions are stopped by transferring aliquots of incubate into acetonitrile at the appropriate time points, in a 1:2 ratio. The termination plates are centrifuged at 3,000 rpm for 20 min at 4° C. to precipitate the protein. Following protein precipitation, the sample supernatants were combined in cassettes of up to 4 compounds, internal standard was added and analysed by LC MS/MS. From a plot of ln peak area ratio (compound peak area/internal standard peak area) against time, the gradient of the line was determined. Subsequently, half-life (t½) and intrinsic clearance (CLint) were calculated using the equations below: Elimination rate constant (k)=(−gradient) Half-life (t½) (min)=0.693/k Intrinsic clearance (i.e. CLint) (μL/min/million cells)=V×0.693/t1/2
where V=Incubation volume (μL)/Number of cells
Verapamil and umbelliferone were included in the assay as controls and if the values for these compounds are not within the specified limits the results were rejected and the experiment repeated.

[4] = PK parameters in mouse (IV and PO); format: in vivo; details: for PK parameters (mouse): F: 10 mg/kg IV and 10 mg/kg PO; for clearance / half-life: male, Swiss Albino, plasma, IV arm, 10 mg/kg; for clearance: read-out: PK parameters (mouse): Cl; for half-life: read-out: PK parameters (mouse): t1/2
Description: Swiss Albino male mice or Sprague Dawley rats (TCGLS, India) were kept under a 12/12 h light/dark cycle, 22±2° C. temp, 50±20% RH with free access to food and water ad libitum. Mice were selected randomly/based on body weight/age and fasted for 4 h before dosing and until 2 h after dosing. Three mice were used per route of administration. […]
as §1

| Compound | PK parameters (rat): F [1] | clearance [1] | half-life [1] | microsomal CLint at 1 μM [2] | hepatocyte CLint at 3 μM [3] | PK parameters (mouse): F [4] | clearance [4] | half-life [4] |
| --- | --- | --- | --- | --- | --- | --- | --- | --- |
| N#Cc1cc(NC(=O)[C@H]2c3ccccc3C(=O)N(CC(F)(F)F)[C@@H]2c2ccc(OC3CC3)nc2)ccc1F (single isomer, unassigned) [(1a)] | F = 107% | 1 mL/min/kg | 26 h | < 10 µL/min/mg | < 3 µL/min/1e6 cells | F = 79% | 2.17 mL/min/kg | 17 h |
| N#Cc1cc(NC(=O)[C@H]2c3ccccc3C(=O)N(CC(F)(F)F)[C@@H]2c2cnc(C(F)(F)F)nc2)ccc1F [(9a), (3S,4S)—N-(3-cyano-4-fluorophenyl)-1-oxo-2-(2,2,2-trifluoroethyl)-3-(2-(trifluoromethyl)pyrimidin-5-yl)-1,2,3,4-tetrahydroisoquinoline-4-carboxamide] | F = 65% | 1.33 mL/min/kg | 22 h | < 10 µL/min/mg | < 3 µL/min/1e6 cells | F = 92% | 3.17 mL/min/kg | 14 h |
| N#Cc1cc(NC(=O)[C@H]2c3ccccc3C(=O)N(CC(F)(F)F)[C@@H]2c2cccnc2)ccc1F [(+) SJ-733, 4-Isoquinolinecarboxamide, N-(3-cyano-4-fluorophenyl)-1,2,3,4-tetrahydro-1-oxo-3-(3-pyridinyl)-2-(2,2,2-trifluoroethyl)-, (3S,4S)-, reference compound] | F = 75% | 13.3 mL/min/kg | 7.7 h | < 6 µL/min/mg | 11.4 µL/min/1e6 cells | F = 66% | 70 mL/min/kg | 1.1 h |
